We go through 24 compounds from ChEMBL document CHEMBL1201862, “PubChem BioAssay data set” (2004).

Calls of active or inactive are those of the source.

Assay [1] can be described thus: A cytotoxicity screen of small molecule inhibitors of the PhoP region in Salmonella typhi identified in the primary screen. [Related pubchem assays: 1850, 1864, 1985 ]. Type of assay: functional.
The target in a further assay is T1, Cytochrome P450 1A2 (Homo sapiens, UniProt P05177).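 Further: PubChem cytochrome P450 panel assay, CYP1A2 panel member.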
T1 sequence (P05177 whole entry): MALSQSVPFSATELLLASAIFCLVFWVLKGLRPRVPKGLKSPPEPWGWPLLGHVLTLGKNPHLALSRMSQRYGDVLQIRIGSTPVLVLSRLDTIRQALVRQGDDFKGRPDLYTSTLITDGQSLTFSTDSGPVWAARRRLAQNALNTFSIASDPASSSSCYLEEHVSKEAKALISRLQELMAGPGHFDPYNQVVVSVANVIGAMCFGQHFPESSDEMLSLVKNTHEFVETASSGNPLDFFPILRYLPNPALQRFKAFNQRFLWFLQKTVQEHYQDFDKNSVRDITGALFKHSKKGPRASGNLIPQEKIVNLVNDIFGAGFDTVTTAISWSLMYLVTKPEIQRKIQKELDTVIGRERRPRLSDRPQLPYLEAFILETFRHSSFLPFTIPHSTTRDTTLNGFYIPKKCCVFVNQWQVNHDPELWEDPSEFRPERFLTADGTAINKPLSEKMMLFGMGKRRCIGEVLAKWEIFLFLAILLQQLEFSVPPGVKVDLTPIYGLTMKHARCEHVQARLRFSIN

The target of a further assay is Cytochrome P450 2D6 (Homo sapiens, UniProt P10635).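 Further: CYP2D6 member of a cytochrome P450 panel assay.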
A short description of assay [2]: viability of uninfected HEp-2 cells – cell-based, HTS, cytotoxicity control for RSV inhibitor project, dose response (AID 2410). Type of assay: functional. To be noted: human respiratory syncytial virus.
A further assay addresses Cytochrome P450 2C9 (Homo sapiens, UniProt P11712).
The target of assay [3] is Voltage-dependent T-type calcium channel subunit alpha-1H (Homo sapiens, UniProt O95180). Type of assay: functional.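 Further: channel activity triggered by adding a high calcium stimulation buffer.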
The target in a further assay is Cytochrome P450 2C19 (Homo sapiens, UniProt P33261). The assay is described as follows: Cytochrome panel assay with activity outcomes. Panel member name: p450-cyp2c19 Compounds with AC50 equal or less than 10 uM are considered active. Type of assay: functional. To be noted: read-out: AC50.
Assay [4] has as its target T2, E3 ubiquitin-protein ligase XIAP (Homo sapiens, UniProt P98170). In words: small molecules displacing peptide from XIAP – biochemical, IAP family, fluorescence polarization (AID 1018). Type of assay: functional. (Fluorescence polarisation rises when a labelled molecule tumbles more slowly, as on binding a larger partner.)
Assay [5] has as its target T2, E3 ubiquitin-protein ligase XIAP. In words: Counter Screen using XIAP-Bir3 for Chemical Antagonists of Bir1/2 domains of IAP-family anti-apoptotic proteins. [Related pubchem assays (depositor defined):AID1018, AID1449, AID1514, AID1638, AID1749, AID1750, AID488957, AID488963]. On the technique in general: Counterscreens check selectivity or assay interference.
The target of assay [6] is Glyceraldehyde-3-phosphate dehydrogenase (Homo sapiens, UniProt P04406).
In assay [7] the target is T3, Endoribonuclease toxin MazF (Escherichia coli K-12, UniProt P0AE70).
T3 sequence (P0AE70 whole entry): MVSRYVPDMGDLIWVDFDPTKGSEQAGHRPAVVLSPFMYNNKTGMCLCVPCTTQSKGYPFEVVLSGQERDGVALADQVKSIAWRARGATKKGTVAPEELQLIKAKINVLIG
In words: substrate-only fluorescence increase artefacts – biochemical, single-stranded RNase substrate, counter-screen for MazEF activator project, dose response (AID 588502). Type of assay: functional.

The target in assay [8] is T3, Endoribonuclease toxin MazF. The assay is described as follows: activation of MazEF endoribonuclease cleavage – biochemical, fluorescence, single-stranded RNA substrate, uHTS hits, dose response (AID 588481). Type of assay: functional.
The target in assay [9] is T4, Zinc finger protein mex-5 (Caenorhabditis elegans, UniProt Q9XUB2).
T4 sequence (Q9XUB2 whole entry): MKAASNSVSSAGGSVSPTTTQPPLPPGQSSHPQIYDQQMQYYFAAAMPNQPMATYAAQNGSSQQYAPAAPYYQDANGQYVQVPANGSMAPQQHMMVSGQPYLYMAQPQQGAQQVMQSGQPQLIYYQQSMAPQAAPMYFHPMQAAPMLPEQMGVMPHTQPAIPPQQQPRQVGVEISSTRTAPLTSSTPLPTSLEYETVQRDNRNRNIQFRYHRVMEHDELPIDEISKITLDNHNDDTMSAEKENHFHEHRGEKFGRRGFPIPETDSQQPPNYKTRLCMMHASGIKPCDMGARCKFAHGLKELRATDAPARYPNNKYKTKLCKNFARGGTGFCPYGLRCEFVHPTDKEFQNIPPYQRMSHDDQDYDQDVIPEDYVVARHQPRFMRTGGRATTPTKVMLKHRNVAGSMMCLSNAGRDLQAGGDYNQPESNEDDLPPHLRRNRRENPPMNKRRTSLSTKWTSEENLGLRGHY
In words: potency of MEX-5 RNA-binding blockers – biochemical, C. elegans, fluorescence polarization, dose response (AID 1960).

Assay [10] has as its target T5, RNA-binding protein pos-1 (Caenorhabditis elegans, UniProt G5EF15).
T5 sequence (G5EF15 whole entry): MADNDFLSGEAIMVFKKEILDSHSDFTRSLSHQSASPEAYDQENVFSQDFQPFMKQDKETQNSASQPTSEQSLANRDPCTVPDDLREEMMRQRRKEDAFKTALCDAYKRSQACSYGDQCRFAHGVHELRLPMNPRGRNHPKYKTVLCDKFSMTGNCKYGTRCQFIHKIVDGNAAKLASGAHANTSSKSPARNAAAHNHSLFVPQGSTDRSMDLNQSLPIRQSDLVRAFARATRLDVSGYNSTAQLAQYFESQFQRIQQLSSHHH
In words: disruptors of C. elegans POS-1 RNA interaction – biochemical, fluorescence polarization, dose response (AID 1964).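 Further: purified POS-1 fused to maltose binding protein made in E. coli; potency of compounds blocking POS-1 binding to fluorescent RNA.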

Assay [11] addresses T6, Corticotropin-releasing factor receptor 2/Corticotropin-releasing factor-binding protein (Homo sapiens, UniProt P24387+Q13324).
T6 sequence (Q13324 whole entry): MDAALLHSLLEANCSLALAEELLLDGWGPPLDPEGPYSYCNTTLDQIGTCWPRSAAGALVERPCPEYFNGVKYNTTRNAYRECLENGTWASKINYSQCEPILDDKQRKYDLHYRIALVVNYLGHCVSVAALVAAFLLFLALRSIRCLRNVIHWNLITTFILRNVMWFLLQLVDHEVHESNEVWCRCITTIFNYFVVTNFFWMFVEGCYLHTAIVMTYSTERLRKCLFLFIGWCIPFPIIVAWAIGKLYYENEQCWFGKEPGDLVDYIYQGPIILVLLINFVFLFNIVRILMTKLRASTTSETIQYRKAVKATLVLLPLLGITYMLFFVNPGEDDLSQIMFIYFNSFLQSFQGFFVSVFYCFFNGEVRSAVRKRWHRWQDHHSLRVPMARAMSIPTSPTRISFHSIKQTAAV
T6 sequence (P24387 whole entry): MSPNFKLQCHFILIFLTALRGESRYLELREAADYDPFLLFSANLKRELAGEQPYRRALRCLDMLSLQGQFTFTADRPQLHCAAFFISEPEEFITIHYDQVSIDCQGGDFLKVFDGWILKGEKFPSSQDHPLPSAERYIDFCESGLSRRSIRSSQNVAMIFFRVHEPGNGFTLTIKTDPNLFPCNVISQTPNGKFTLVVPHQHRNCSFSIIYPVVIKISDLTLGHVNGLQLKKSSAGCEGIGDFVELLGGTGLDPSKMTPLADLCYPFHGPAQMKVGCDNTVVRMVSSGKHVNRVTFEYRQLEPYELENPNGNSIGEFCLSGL
In words: activators of CRF receptor 2 with binding protein – uHTS hits, confirmation (AID 602473). Type of assay: functional. Conditions: read-out: EC50_Mean.

The target in assay [12] is T7, DNA repair protein RAD52 homolog (Homo sapiens, UniProt P43351).
T7 sequence (P43351 whole entry): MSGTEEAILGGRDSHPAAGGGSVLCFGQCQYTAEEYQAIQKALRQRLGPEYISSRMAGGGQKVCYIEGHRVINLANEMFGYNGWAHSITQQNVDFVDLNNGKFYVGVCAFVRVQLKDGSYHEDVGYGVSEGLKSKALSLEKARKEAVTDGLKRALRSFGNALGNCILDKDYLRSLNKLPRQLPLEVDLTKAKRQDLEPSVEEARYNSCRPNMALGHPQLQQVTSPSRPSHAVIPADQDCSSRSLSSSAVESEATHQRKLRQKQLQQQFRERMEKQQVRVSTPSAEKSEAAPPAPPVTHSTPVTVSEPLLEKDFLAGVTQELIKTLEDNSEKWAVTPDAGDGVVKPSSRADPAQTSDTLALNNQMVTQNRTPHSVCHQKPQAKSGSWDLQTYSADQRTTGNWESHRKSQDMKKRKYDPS
Type of assay: functional, biochemical.

A short description of assay [13]: NIH3T3 cell viability loss – ATP luminescence, mouse fibroblasts, counter-screen, dose response (AID 2010).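 Further: cells exposed to compound for about 90 hours before reading.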 Type of assay: functional, cell-based.
Assay [14] in a line: Trypanosoma cruzi growth suppression in host cells – NIH3T3 host cells, beta-gal luminescence, confirmation (AID 2044).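 Further: intracellular parasites grown in NIH/3T3 mouse fibroblasts as host cells; luminescent beta-galactosidase reporter signal from transgenic T. cruzi replicating inside host cells; inhibitors lower the luminescence signal.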 Type of assay: functional, cell-based.

Sequence of Voltage-dependent T-type calcium channel subunit alpha-1H (O95180 whole entry): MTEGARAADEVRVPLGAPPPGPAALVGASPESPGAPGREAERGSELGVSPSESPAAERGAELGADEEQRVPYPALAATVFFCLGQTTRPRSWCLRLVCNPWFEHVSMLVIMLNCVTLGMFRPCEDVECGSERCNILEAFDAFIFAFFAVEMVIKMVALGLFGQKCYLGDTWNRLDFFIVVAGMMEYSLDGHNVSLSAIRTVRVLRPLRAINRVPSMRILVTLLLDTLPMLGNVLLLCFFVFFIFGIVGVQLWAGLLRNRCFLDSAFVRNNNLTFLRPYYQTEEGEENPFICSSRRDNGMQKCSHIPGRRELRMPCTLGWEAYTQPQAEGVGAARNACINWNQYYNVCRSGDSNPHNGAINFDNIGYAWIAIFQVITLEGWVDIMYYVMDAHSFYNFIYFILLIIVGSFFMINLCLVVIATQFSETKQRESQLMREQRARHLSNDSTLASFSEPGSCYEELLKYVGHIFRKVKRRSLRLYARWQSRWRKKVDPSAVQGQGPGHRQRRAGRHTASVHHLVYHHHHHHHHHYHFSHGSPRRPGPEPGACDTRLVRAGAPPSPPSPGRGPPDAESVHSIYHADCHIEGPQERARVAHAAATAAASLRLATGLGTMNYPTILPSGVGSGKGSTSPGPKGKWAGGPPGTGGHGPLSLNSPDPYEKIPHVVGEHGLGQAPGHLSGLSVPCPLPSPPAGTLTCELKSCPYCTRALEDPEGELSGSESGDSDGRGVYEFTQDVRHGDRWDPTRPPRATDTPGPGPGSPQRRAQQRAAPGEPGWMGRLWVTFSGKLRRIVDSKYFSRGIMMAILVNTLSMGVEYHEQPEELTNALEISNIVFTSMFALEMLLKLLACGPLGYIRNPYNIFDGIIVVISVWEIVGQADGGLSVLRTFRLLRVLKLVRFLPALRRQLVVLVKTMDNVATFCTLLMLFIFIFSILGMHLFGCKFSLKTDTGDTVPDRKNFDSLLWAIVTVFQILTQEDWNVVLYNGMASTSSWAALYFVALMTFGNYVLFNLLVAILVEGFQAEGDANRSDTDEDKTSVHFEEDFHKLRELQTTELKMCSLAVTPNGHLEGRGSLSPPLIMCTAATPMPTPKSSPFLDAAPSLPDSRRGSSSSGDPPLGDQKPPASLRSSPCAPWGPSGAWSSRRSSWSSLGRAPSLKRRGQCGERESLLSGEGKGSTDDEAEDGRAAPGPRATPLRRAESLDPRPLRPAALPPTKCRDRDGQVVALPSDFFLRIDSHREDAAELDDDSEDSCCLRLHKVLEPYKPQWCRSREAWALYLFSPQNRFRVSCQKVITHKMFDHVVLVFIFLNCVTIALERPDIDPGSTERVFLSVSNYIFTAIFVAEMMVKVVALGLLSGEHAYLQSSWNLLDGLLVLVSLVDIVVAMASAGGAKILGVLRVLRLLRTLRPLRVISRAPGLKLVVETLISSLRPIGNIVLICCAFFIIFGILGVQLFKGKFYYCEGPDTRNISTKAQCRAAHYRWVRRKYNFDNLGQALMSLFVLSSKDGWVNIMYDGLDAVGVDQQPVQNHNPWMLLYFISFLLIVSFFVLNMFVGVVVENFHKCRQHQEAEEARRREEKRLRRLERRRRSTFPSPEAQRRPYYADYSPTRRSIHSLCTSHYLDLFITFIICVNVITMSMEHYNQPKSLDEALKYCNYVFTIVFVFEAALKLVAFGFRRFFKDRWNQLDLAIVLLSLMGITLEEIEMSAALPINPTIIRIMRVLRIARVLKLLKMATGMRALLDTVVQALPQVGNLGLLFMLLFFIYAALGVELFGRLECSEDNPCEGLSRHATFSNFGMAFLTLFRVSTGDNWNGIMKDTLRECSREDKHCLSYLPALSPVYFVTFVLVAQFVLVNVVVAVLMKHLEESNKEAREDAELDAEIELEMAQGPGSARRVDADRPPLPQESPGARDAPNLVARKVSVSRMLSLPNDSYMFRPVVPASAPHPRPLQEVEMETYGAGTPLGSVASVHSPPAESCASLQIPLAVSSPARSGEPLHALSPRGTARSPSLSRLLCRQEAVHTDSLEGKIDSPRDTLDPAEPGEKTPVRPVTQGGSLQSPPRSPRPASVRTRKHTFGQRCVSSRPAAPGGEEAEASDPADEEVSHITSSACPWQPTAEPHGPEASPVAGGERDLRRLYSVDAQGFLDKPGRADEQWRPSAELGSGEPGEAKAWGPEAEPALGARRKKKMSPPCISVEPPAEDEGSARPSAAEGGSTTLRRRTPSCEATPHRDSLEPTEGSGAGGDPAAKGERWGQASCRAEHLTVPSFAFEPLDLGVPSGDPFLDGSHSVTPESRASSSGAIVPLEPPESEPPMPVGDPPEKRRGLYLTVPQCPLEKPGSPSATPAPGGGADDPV
T2 sequence (P98170 whole entry): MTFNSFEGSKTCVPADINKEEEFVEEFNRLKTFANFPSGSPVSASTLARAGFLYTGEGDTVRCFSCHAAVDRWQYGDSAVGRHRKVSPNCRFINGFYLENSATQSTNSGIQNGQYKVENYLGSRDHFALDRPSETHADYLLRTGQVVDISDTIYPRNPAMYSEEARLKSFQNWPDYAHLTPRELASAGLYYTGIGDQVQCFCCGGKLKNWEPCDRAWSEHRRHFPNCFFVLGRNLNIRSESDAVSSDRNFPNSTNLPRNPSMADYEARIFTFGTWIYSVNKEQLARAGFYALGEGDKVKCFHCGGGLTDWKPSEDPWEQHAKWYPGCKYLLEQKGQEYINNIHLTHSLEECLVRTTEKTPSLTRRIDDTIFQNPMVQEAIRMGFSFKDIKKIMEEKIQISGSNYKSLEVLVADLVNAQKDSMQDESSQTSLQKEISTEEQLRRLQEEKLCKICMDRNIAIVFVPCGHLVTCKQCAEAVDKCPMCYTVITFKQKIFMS
Sequence of Cytochrome P450 2D6 (P10635 whole entry): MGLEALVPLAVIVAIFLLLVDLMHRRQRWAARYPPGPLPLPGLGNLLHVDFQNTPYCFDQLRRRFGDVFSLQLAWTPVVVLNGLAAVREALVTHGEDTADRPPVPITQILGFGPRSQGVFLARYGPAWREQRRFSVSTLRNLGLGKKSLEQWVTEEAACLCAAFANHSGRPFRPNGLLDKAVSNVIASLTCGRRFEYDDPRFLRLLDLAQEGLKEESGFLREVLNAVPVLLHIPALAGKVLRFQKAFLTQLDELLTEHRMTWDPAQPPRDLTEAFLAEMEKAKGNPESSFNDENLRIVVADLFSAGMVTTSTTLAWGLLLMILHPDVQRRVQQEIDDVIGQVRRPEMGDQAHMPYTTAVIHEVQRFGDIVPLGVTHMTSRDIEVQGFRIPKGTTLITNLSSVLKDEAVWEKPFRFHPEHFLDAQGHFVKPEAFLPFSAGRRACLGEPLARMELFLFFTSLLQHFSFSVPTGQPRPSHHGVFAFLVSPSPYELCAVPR
Sequence of Cytochrome P450 2C19 (P33261 whole entry): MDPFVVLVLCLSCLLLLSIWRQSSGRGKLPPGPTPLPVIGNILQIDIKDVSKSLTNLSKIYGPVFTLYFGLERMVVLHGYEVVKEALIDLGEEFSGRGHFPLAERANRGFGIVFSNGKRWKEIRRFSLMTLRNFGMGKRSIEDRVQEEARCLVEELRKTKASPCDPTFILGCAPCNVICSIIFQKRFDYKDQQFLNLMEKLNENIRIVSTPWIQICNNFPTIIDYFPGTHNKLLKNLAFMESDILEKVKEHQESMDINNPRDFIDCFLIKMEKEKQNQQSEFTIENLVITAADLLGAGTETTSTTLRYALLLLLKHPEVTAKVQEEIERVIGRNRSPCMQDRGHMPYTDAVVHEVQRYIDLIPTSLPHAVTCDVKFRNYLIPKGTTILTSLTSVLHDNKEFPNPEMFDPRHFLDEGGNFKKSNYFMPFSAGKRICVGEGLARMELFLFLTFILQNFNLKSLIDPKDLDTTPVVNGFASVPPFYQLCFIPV
Sequence of Cytochrome P450 2C9 (P11712 whole entry): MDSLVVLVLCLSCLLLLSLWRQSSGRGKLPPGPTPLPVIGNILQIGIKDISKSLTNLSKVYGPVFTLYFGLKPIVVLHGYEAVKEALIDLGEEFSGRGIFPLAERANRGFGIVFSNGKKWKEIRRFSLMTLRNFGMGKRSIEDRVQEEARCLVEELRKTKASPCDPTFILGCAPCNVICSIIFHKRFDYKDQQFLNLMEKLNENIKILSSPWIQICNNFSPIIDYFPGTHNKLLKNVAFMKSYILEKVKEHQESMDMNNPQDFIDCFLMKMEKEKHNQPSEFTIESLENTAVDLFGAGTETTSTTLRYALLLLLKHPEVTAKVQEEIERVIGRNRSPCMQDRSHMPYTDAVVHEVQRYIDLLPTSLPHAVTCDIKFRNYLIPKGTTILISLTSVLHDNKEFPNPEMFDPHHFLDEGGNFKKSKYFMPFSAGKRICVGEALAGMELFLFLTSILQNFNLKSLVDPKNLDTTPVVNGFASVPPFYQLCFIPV
Sequence of Glyceraldehyde-3-phosphate dehydrogenase (P04406 whole entry): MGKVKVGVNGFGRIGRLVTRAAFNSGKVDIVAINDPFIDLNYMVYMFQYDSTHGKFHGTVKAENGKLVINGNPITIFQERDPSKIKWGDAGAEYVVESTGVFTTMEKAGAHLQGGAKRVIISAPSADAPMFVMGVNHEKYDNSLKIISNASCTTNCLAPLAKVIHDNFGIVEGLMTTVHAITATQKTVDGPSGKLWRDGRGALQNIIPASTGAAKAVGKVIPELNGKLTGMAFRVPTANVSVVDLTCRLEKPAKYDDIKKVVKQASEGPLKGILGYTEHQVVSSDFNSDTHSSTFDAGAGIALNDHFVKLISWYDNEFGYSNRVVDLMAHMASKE

Regarding `CCCCCc1nc2c(c3c1CCCC3)CCCC2`, the EC50 in assay [1] was > 50 µM (active). By AC50 is commonly meant the concentration at which the activity in the assay is half-maximal. In general, CC50 refers to the concentration giving 50% cytotoxicity. On to `Cc1ccc2[nH]c(SCc3ccc([N+](=O)[O-])cc3)nc2c1`, for which the AC50 is 1.12 µM (active) at Cytochrome P450 1A2, 5.01 µM (active) on Cytochrome P450 2D6, 3.55 µM (active) at Cytochrome P450 2C9 and 0.794 µM (active) on Cytochrome P450 2C19. Besides, the 50% cytotoxic concentration (CC50) in assay [2] was 13.6 µM (active). Further, in [3], the EC50 is 4.41 µM (active). The term IC50 denotes the midpoint of a concentration-inhibition curve. Regarding `COC(=O)c1cc2sccc2n1Cc1nc(-c2cccc(Cl)c2)oc1C`, the values for the IC50 in [4] and in assay [5] were > 100 µM (not active) and > 100 µM (inactive), respectively. `O=C1CCCN1c1ccc(CNS(=O)(=O)c2ccc(F)cc2)cc1`: the EC50 in assay [1] is > 50 µM (active).

On to `O=C(c1ccc(N2CCN(C(=O)c3ccccc3Br)CC2)cc1)c1cccc(F)c1`, for which the IC50 in assay [6] was > 100 µM (not active). For `CC1(C(=O)N(c2ccccc2)C(C(=O)NC2CCCC2)c2ccccn2)CC(=O)N=C2C=CC=CN21` (configuration not stated), the IC50 in assay [4] is > 100 µM (not active); in assay [5] it was > 100 µM (inactive). In the case of `Cc1cc(O)nc(NN=C(CC(C)C)CC(C)C)n1`, the IC50 in [4] is > 100 µM (not active); in [5], > 100 µM (inactive). `CC1=CC(=C2N=C(c3ccccc3)OC2=O)C=C(C)O1`: the EC50 in assay [7] is > 99 µM (inactive); in [8] it was > 99 µM (inactive); in [9], 12.3 µM (inconclusive); in [10], 142 µM (inconclusive).

For the compound `Cc1cc(NC(=O)CSc2c(C)[nH]c3ccccc23)no1`, the EC50 in assay [3] was 5.22 µM (active). Consider `CCSc1nc(C)cc(C)c1S(=O)(=O)c1ccccc1C`, for which the EC50 in [1] is > 50 µM (active).

In the case of `Cn1cc(C=C2C(=O)NC(=O)NC2=O)c2ccccc21`, the EC50 in [7] is 21.1 µM (inactive); in assay [8], > 99 µM (inactive); in [9], 5.82 µM (inconclusive); in assay [10] it was 6.99 µM (inconclusive); in assay [11], 24.1 µM (active). As to `CSc1nc(NCCCN(C)C)c2c3c(sc2n1)CN(C)CC3`, the concentration at half-maximal activity (AC50) in assay [12] is 10.1 µM (active). For the compound `Cc1ccc(C)c(Cn2c(CO)nc3ccccc32)c1`, the EC50 in assay [3] was 2.68 µM (active).

Regarding `Cc1ccc2c(c1)NC(=O)C(CC(=O)O)O2` (configuration not stated), the IC50 was > 100 µM (not active) in [4] and > 100 µM (inactive) in assay [5]. For `CCCCCCOc1ccc(CN2CCN(CC)CC2)cc1`, the EC50 was > 50 µM (active) in assay [1], > 30 µM (not active) in assay [13] and 0.752 µM (active) in [14]. Turning to `COCCN=C(S)Nc1ccc2nc(N3CCN(C)CC3)cc(C)c2c1`, the AC50 in assay [12] is 13.2 µM (active). As for `COc1cccc(C(c2nnnn2CCc2ccccc2)N2CCN(c3ccccc3)CC2)c1OC` (configuration not stated), in assay [3], the EC50 is 0.986 µM (active). As for `O=C(COc1cccc2ccccc12)NNC(=O)CSCCO`, the IC50 in [4] is > 100 µM (not active); in [5], > 100 µM (inactive). Consider `Cc1cc(Cl)c(S(=O)(=O)Nc2ccc3c(c2)OCO3)cc1OCC(=O)NC1CCCCC1`, for which the EC50 in [3] was 2.06 µM (active).

As to `COC(=O)c1ccccc1NC(=O)Cn1cnc2c(cnn2-c2ccccc2)c1=O`, the EC50 in assay [7] and in [8] was > 99 µM (inactive) throughout. Regarding `O=C(C[n+]1cc(-c2ccccc2)n2c1CCC2)c1cccs1`, the EC50 in [1] was > 50 µM (active). Consider `Oc1ccccc1C=NN=Cc1c(O)ccc2ccccc12`, for which the figures for the EC50 in [7], in assay [8] and in [11] were > 99 µM (inactive), > 99 µM (inactive) and 5.17 µM (active), respectively. On to `Clc1cccc(/C(Cc2nc3ccccc3[nH]2)=N\Nc2ccccc2)c1`, for which the EC50 in assay [7] and in assay [8] was > 99 µM (inactive) in each case.

As to `Oc1ccc(C2NCc3ccccc3-n3cccc32)cc1Cl` (configuration not stated), in assay [1], the EC50 is > 50 µM (active).
